# Assay results reported in patent US20230210831A1, “CHRONIC KIDNEY DISEASE TREATMENT OR PREVENTION METHOD” (Japan Tobacco Inc., priority 2019, published 2023).
# Several values for one entry are separate records, joined by “and”; a condition that tells them apart may be missing. Equal values may be shown once.
# Assays:
# Assay type in all cases: cell-based
# [1] = tested on: Salmonella typhimurium TA98; test: Ames test (reverse mutation test), TA98
# Protocol: (§1) The solvent used herein was dimethyl sulfoxide (DMSO, 100 µL/plate).
# (§2) The mixtures were preincubated at 37° C. for 20 minutes while shaking. […] Two plates per treatment were used.
# [2] = tested on: Salmonella typhimurium TA1537; test: Ames test (reverse mutation test), TA1537
# Protocol: as §1, §2
# [3] = tested on: Salmonella typhimurium TA100; test: Ames test (reverse mutation test), TA100
# Protocol: as §1, §2
# [4] = tested on: Salmonella typhimurium TA1535; test: Ames test (reverse mutation test), TA1535
# Protocol: as §1, §2
# Escherichia coli WP2uvrA = test: Ames test (reverse mutation test), WP2uvrA; conditions: WP2uvrA
# Protocol: as §1, §2
# [5] = tested on: Salmonella typhimurium (TA98, TA1537, TA100, and TA1535) and Escherichia coli (WP2uvrA); test: Ames test (reverse mutation test), overall conclusion over all tester strains; conditions: all bacterial tester strains, with and/or without S9 mix
# Protocol: as §1, §2
# Details are explained as follows.
compound,measurement,setting,value
CC(C)(C)Oc1cc(F)cc(-c2cc(N)nn2C(F)(F)F)c1 [Metabolite 1],Number of revertant colonies,"[1]; TA98, +S9 mix, 2.3 µg/plate",35
same,Number of revertant colonies,"[1]; TA98, +S9 mix, 6.9 µg/plate",31
same,Number of revertant colonies,"[1]; TA98, +S9 mix, 21 µg/plate",35
same,Number of revertant colonies,"[1]; TA98, +S9 mix, 62 µg/plate",28
same,Number of revertant colonies,"[1]; TA98, +S9 mix, 185 µg/plate",16
same,Number of revertant colonies,"[1]; TA98, +S9 mix, 556 µg/plate",15
same,Number of revertant colonies,"[1]; TA98, +S9 mix, 1667 µg/plate",13
same,Number of revertant colonies,"[1]; TA98, +S9 mix, 5000 µg/plate",13
same,Number of revertant colonies,"[1]; TA98, -S9 mix, 2.3 µg/plate",14
same,Number of revertant colonies,"[1]; TA98, -S9 mix, 6.9 µg/plate",16
same,Number of revertant colonies,"[1]; TA98, -S9 mix, 21 µg/plate",14
same,Number of revertant colonies,"[1]; TA98, -S9 mix, 62 µg/plate",21
same,Number of revertant colonies,"[1]; TA98, -S9 mix, 185 µg/plate",9
same,Number of revertant colonies,"[1]; TA98, -S9 mix, 556 µg/plate",0
same,Number of revertant colonies,"[1]; TA98, -S9 mix, 1667 µg/plate",0
same,Number of revertant colonies,"[1]; TA98, -S9 mix, 5000 µg/plate",0
same,Number of revertant colonies,"[2]; TA1537, +S9 mix, 2.3 µg/plate",11
same,Number of revertant colonies,"[2]; TA1537, +S9 mix, 6.9 µg/plate",10
same,Number of revertant colonies,"[2]; TA1537, +S9 mix, 21 µg/plate",9
same,Number of revertant colonies,"[2]; TA1537, +S9 mix, 62 µg/plate",6
same,Number of revertant colonies,"[2]; TA1537, +S9 mix, 185 µg/plate",2
same,Number of revertant colonies,"[2]; TA1537, +S9 mix, 556 µg/plate",0
same,Number of revertant colonies,"[2]; TA1537, +S9 mix, 1667 µg/plate",0
same,Number of revertant colonies,"[2]; TA1537, +S9 mix, 5000 µg/plate",0
same,Number of revertant colonies,"[2]; TA1537, -S9 mix, 2.3 µg/plate",7
same,Number of revertant colonies,"[2]; TA1537, -S9 mix, 6.9 µg/plate",10
same,Number of revertant colonies,"[2]; TA1537, -S9 mix, 21 µg/plate",9
same,Number of revertant colonies,"[2]; TA1537, -S9 mix, 62 µg/plate",9
same,Number of revertant colonies,"[2]; TA1537, -S9 mix, 185 µg/plate",0
same,Number of revertant colonies,"[2]; TA1537, -S9 mix, 556 µg/plate",0
same,Number of revertant colonies,"[2]; TA1537, -S9 mix, 1667 µg/plate",0
same,Number of revertant colonies,"[2]; TA1537, -S9 mix, 5000 µg/plate",0
same,Number of revertant colonies,"[3]; TA100, +S9 mix, 2.3 µg/plate",120
same,Number of revertant colonies,"[3]; TA100, +S9 mix, 6.9 µg/plate",119
same,Number of revertant colonies,"[3]; TA100, +S9 mix, 21 µg/plate",117
same,Number of revertant colonies,"[3]; TA100, +S9 mix, 62 µg/plate",104
same,Number of revertant colonies,"[3]; TA100, +S9 mix, 185 µg/plate",78
same,Number of revertant colonies,"[3]; TA100, +S9 mix, 556 µg/plate",59
same,Number of revertant colonies,"[3]; TA100, +S9 mix, 1667 µg/plate",50
same,Number of revertant colonies,"[3]; TA100, +S9 mix, 5000 µg/plate",52
same,Number of revertant colonies,"[3]; TA100, -S9 mix, 2.3 µg/plate",99
same,Number of revertant colonies,"[3]; TA100, -S9 mix, 6.9 µg/plate",113
same,Number of revertant colonies,"[3]; TA100, -S9 mix, 21 µg/plate",124
same,Number of revertant colonies,"[3]; TA100, -S9 mix, 62 µg/plate",88
same,Number of revertant colonies,"[3]; TA100, -S9 mix, 185 µg/plate",38
same,Number of revertant colonies,"[3]; TA100, -S9 mix, 556 µg/plate",0
same,Number of revertant colonies,"[3]; TA100, -S9 mix, 1667 µg/plate",0
same,Number of revertant colonies,"[3]; TA100, -S9 mix, 5000 µg/plate",0
same,Number of revertant colonies,"[4]; TA1535, +S9 mix, 1667 µg/plate",4
same,Number of revertant colonies,"[4]; TA1535, -S9 mix, 62 µg/plate",8
same,Number of revertant colonies,"[4]; TA1535, -S9 mix, 185 µg/plate",0
same,Number of revertant colonies,"[4]; TA1535, -S9 mix, 556 µg/plate",0
same,Number of revertant colonies,"[4]; TA1535, -S9 mix, 1667 µg/plate",0
same,Number of revertant colonies,"Escherichia coli WP2uvrA; +S9 mix, 2.3 µg/plate",31
same,Number of revertant colonies,"Escherichia coli WP2uvrA; +S9 mix, 6.9 µg/plate",31
same,Number of revertant colonies,"Escherichia coli WP2uvrA; +S9 mix, 12 µg/plate",28
same,Number of revertant colonies,"Escherichia coli WP2uvrA; +S9 mix, 21 µg/plate",32 and 25
same,Number of revertant colonies,"Escherichia coli WP2uvrA; +S9 mix, 36 µg/plate",34
same,Number of revertant colonies,"Escherichia coli WP2uvrA; +S9 mix, 62 µg/plate",40 and 35
same,Number of revertant colonies,"Escherichia coli WP2uvrA; +S9 mix, 185 µg/plate",16 and 9
same,Number of revertant colonies,"Escherichia coli WP2uvrA; +S9 mix, 556 µg/plate",18
same,Number of revertant colonies,"Escherichia coli WP2uvrA; +S9 mix, 1667 µg/plate",9
same,Number of revertant colonies,"Escherichia coli WP2uvrA; +S9 mix, 5000 µg/plate",0
same,Number of revertant colonies,"Escherichia coli WP2uvrA; -S9 mix, 2.3 µg/plate",32
same,Number of revertant colonies,"Escherichia coli WP2uvrA; -S9 mix, 6.9 µg/plate",27
same,Number of revertant colonies,"Escherichia coli WP2uvrA; -S9 mix, 21 µg/plate",31
same,Number of revertant colonies,"Escherichia coli WP2uvrA; -S9 mix, 62 µg/plate",24
same,Number of revertant colonies,"Escherichia coli WP2uvrA; -S9 mix, 185 µg/plate",15
same,Number of revertant colonies,"Escherichia coli WP2uvrA; -S9 mix, 556 µg/plate",8
same,Number of revertant colonies,"Escherichia coli WP2uvrA; -S9 mix, 1667 µg/plate",5
same,Number of revertant colonies,"Escherichia coli WP2uvrA; -S9 mix, 5000 µg/plate",0
same,potential to induce reverse mutations,[5],did not show potential to induce reverse mutations
Nc1cc(-c2cc(F)cc(OC(F)(F)F)c2)n(-c2cncc(C(F)(F)F)c2)n1 [Metabolite 5],Number of revertant colonies,"[1]; TA98, +S9 mix, 6.9 µg/plate",36
same,Number of revertant colonies,"[1]; TA98, +S9 mix, 21 µg/plate",38
same,Number of revertant colonies,"[1]; TA98, +S9 mix, 62 µg/plate",38
same,Number of revertant colonies,"[1]; TA98, +S9 mix, 185 µg/plate",33
same,Number of revertant colonies,"[1]; TA98, +S9 mix, 556 µg/plate",27
same,Number of revertant colonies,"[1]; TA98, +S9 mix, 1667 µg/plate",25
same,Number of revertant colonies,"[1]; TA98, +S9 mix, 5000 µg/plate",17
same,Number of revertant colonies,"[1]; TA98, -S9 mix, 6.9 µg/plate",29
same,Number of revertant colonies,"[1]; TA98, -S9 mix, 21 µg/plate",28
same,Number of revertant colonies,"[1]; TA98, -S9 mix, 62 µg/plate",29
same,Number of revertant colonies,"[1]; TA98, -S9 mix, 185 µg/plate",26
same,Number of revertant colonies,"[1]; TA98, -S9 mix, 556 µg/plate",24
same,Number of revertant colonies,"[1]; TA98, -S9 mix, 1667 µg/plate",18
same,Number of revertant colonies,"[1]; TA98, -S9 mix, 5000 µg/plate",14
same,Number of revertant colonies,"[2]; TA1537, +S9 mix, 6.9 µg/plate",13
same,Number of revertant colonies,"[2]; TA1537, +S9 mix, 21 µg/plate",11
same,Number of revertant colonies,"[2]; TA1537, +S9 mix, 62 µg/plate",12
same,Number of revertant colonies,"[2]; TA1537, +S9 mix, 185 µg/plate",12
same,Number of revertant colonies,"[2]; TA1537, +S9 mix, 556 µg/plate",8
same,Number of revertant colonies,"[2]; TA1537, +S9 mix, 1667 µg/plate",3
same,Number of revertant colonies,"[2]; TA1537, +S9 mix, 5000 µg/plate",1
same,Number of revertant colonies,"[2]; TA1537, -S9 mix, 6.9 µg/plate",8
same,Number of revertant colonies,"[2]; TA1537, -S9 mix, 21 µg/plate",7
same,Number of revertant colonies,"[2]; TA1537, -S9 mix, 62 µg/plate",8
same,Number of revertant colonies,"[2]; TA1537, -S9 mix, 185 µg/plate",7
same,Number of revertant colonies,"[2]; TA1537, -S9 mix, 556 µg/plate",2
same,Number of revertant colonies,"[2]; TA1537, -S9 mix, 1667 µg/plate",3
same,Number of revertant colonies,"[2]; TA1537, -S9 mix, 5000 µg/plate",2
same,Number of revertant colonies,"[3]; TA100, +S9 mix, 6.9 µg/plate",134
same,Number of revertant colonies,"[3]; TA100, +S9 mix, 21 µg/plate",123
same,Number of revertant colonies,"[3]; TA100, +S9 mix, 62 µg/plate",108
same,Number of revertant colonies,"[3]; TA100, +S9 mix, 185 µg/plate",103
same,Number of revertant colonies,"[3]; TA100, +S9 mix, 556 µg/plate",99
same,Number of revertant colonies,"[3]; TA100, +S9 mix, 1667 µg/plate",67
same,Number of revertant colonies,"[3]; TA100, +S9 mix, 5000 µg/plate",43
same,Number of revertant colonies,"[3]; TA100, -S9 mix, 6.9 µg/plate",88
same,Number of revertant colonies,"[3]; TA100, -S9 mix, 21 µg/plate",91
same,Number of revertant colonies,"[3]; TA100, -S9 mix, 62 µg/plate",93
same,Number of revertant colonies,"[3]; TA100, -S9 mix, 185 µg/plate",92
same,Number of revertant colonies,"[3]; TA100, -S9 mix, 556 µg/plate",59
same,Number of revertant colonies,"[3]; TA100, -S9 mix, 1667 µg/plate",29
same,Number of revertant colonies,"[3]; TA100, -S9 mix, 5000 µg/plate",12
same,Number of revertant colonies,"[4]; TA1535, +S9 mix, 62 µg/plate",10
same,Number of revertant colonies,"[4]; TA1535, -S9 mix, 5000 µg/plate",4
same,Number of revertant colonies,"Escherichia coli WP2uvrA; +S9 mix, 6.9 µg/plate",22
same,Number of revertant colonies,"Escherichia coli WP2uvrA; +S9 mix, 21 µg/plate",22
same,Number of revertant colonies,"Escherichia coli WP2uvrA; +S9 mix, 62 µg/plate",21
same,Number of revertant colonies,"Escherichia coli WP2uvrA; +S9 mix, 185 µg/plate",21
same,Number of revertant colonies,"Escherichia coli WP2uvrA; +S9 mix, 556 µg/plate",18
same,Number of revertant colonies,"Escherichia coli WP2uvrA; +S9 mix, 1667 µg/plate",21
same,Number of revertant colonies,"Escherichia coli WP2uvrA; +S9 mix, 5000 µg/plate",19
same,Number of revertant colonies,"Escherichia coli WP2uvrA; -S9 mix, 6.9 µg/plate",23
same,Number of revertant colonies,"Escherichia coli WP2uvrA; -S9 mix, 21 µg/plate",15
same,Number of revertant colonies,"Escherichia coli WP2uvrA; -S9 mix, 62 µg/plate",23
same,Number of revertant colonies,"Escherichia coli WP2uvrA; -S9 mix, 185 µg/plate",20
same,Number of revertant colonies,"Escherichia coli WP2uvrA; -S9 mix, 556 µg/plate",22
same,Number of revertant colonies,"Escherichia coli WP2uvrA; -S9 mix, 1667 µg/plate",19
same,Number of revertant colonies,"Escherichia coli WP2uvrA; -S9 mix, 5000 µg/plate",14
same,potential to induce reverse mutations,[5],did not show potential to induce reverse mutations
